Results as given in patent publication US12390437B2, “Itaconic acid derivatives and uses thereof intreating an inflammatory disease or a disease associated with an undesirable immune response” (Sitryx Therapeutics Limited, priority 2019, dated 2025).

Test system: IL-1β cytokine output from THP-1s
Assay: THP-1 AlphaLISA IL-1β cytokine assay
Assay type: cell-based, human
Conditions: Homo sapiens, THP-1, PMA-differentiated THP-1 cells, LPS 24 hr then Nigericin 1 hour; read-out: IL-1β (IC50)
How it was run: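 PMA-differentiated (72 h) THP-1 cells pretreated 30 min with compound, LPS-stimulated 24 h, then nigericin 1 h at 37 °C. Supernatant IL-1β and IL-6 by AlphaLISA; % inhibition normalised to ±LPS controls, IC50 from concentration-response curves.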

Row | SMILES | IC50 [µM]
1 | C=C(CC(=O)OCCCCCCCC)C(=O)OCCC(F)(F)F [Example 3, 4-octyl 1-(3,3,3-trifluoropropyl) 2-methylenesuccinate] | 15.6
2 | C=C(CC(=O)OC1CCCCCCC1)C(=O)OCCC(=O)O [Example 82, 3-((4-(cyclooctyloxy)-2-methylene-4-oxobutanoyl)oxy)propanoic acid] | 25.7
3 | C=C(CC(=O)O[C@@H](C)CCCCCC)C(=O)OCCC(=O)O [Example 84, (S)-3-((2-methylene-4-(octan-2-yloxy)-4-oxobutanoyl)oxy)propanoic acid] | 14.3
4 | C=C(CC(=O)OCCCOc1ccccc1)C(=O)OCCC(=O)O [Example 86, 3-((2-methylene-4-oxo-4-(3-phenoxypropoxy)butanoyl)oxy)propanoic acid] | 100
5 | C=C(CC(=O)OC1CCCCC1)C(=O)OCCC(=O)O [Example 87, 3-((4-(cyclohexyloxy)-2-methylene-4-oxobutanoyl)oxy)propanoic acid] | 28.1
6 | C=C(CC(=O)O[C@H](C)CCCCCC)C(=O)OCCC(=O)O [Example 88, (R)-3-((2-methylene-4-(octan-2-yloxy)-4-oxobutanoyl)oxy)propanoic acid] | 25.2

Stronger by IC50, values ahead:

Row | IC50 [µM] | SMILES
7 | 9.3 | C=C(CC(=O)OCCCCCCCC)C(=O)OCCC#N [Example 1, 1-(2-cyanoethyl) 4-octyl 2-methylenesuccinate]
8 | 5 | C=C(CC(=O)OCCCCCCCC)C(=O)OCCS(C)(=O)=O [Example 2, 1-(2-(methylsulfonyl)ethyl) 4-octyl 2-methylenesuccinate]
9 | 9.3 | C=C(CC(=O)OCCCCCCCC)C(=O)OC1COC1 [Example 4, 4-octyl 1-(oxetan-3-yl) 2-methylenesuccinate]
10 | 4.7 | C=C(CC(=O)OCCCCCCCC)C(=O)OCCN1C(=O)CCC1=O [Example 9, 1-(2-(2,5-dioxopyrrolidin-1-yl)ethyl) 4-octyl 2-methylenesuccinate]
11 | 7.2 | C=C(CC(=O)OCCCCCCCC)C(=O)OCC(=O)O [Example 49, 2-((2-methylene-4-(octyloxy)-4-oxobutanoyl)oxy)acetic acid]
12 | 9.6 | C=C(CC(=O)OCCCCCCCC)C(=O)OCCC(=O)O [Example 80, 3-((2-methylene-4-(octyloxy)-4-oxobutanoyl)oxy)propanoic Acid]

Test system: NRF2
Assay: NRF2 +/-GSH activation assay (DiscoverX PathHunter NRF2 translocation kit, U2OS cells)
Assay type: cell-based
Conditions: Homo sapiens, U2OS; normalised to dimethyl fumarate 'High' control; GSH condition not stated in Table 5; read-out: NRF2 activation Emax
How it was run: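 PathHunter U2OS cells, plated 24 hrs, measured NRF2 nuclear translocation by enzyme-fragment complementation luminescence after 6 hours compound exposure at 37 °C. For +GSH, compound was pre-incubated 30 minutes with GSH (6 mM working stock). EC50 from % activation normalised to dimethyl fumarate high control.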

Row | SMILES | Emax [%]
13 | C=C(CC(=O)OCCCCCCCC)C(=O)OCCC#N [Example 1, 1-(2-cyanoethyl) 4-octyl 2-methylenesuccinate] | 134
14 | C=C(CC(=O)OCCCCCCCC)C(=O)OCCS(C)(=O)=O [Example 2, 1-(2-(methylsulfonyl)ethyl) 4-octyl 2-methylenesuccinate] | 268
15 | C=C(CC(=O)OCCCCCCCC)C(=O)OC1COC1 [Example 4, 4-octyl 1-(oxetan-3-yl) 2-methylenesuccinate] | 181
16 | C=C(CC(=O)OCCCCCCCC)C(=O)OCC(=O)O [Example 49, 2-((2-methylene-4-(octyloxy)-4-oxobutanoyl)oxy)acetic acid] | 232
17 | C=C(CC(=O)OCCCCCCCC)C(=O)OCCC(=O)O [Example 80, 3-((2-methylene-4-(octyloxy)-4-oxobutanoyl)oxy)propanoic Acid] | 229
18 | C=C(CC(=O)OC1CCCCCCC1)C(=O)OCCC(=O)O [Example 82, 3-((4-(cyclooctyloxy)-2-methylene-4-oxobutanoyl)oxy)propanoic acid] | 164
19 | C=C(CC(=O)O[C@@H](C)CCCCCC)C(=O)OCCC(=O)O [Example 84, (S)-3-((2-methylene-4-(octan-2-yloxy)-4-oxobutanoyl)oxy)propanoic acid] | 185
20 | C=C(CC(=O)OCCCOc1ccccc1)C(=O)OCCC(=O)O [Example 86, 3-((2-methylene-4-oxo-4-(3-phenoxypropoxy)butanoyl)oxy)propanoic acid] | 91
21 | C=C(CC(=O)OC1CCCCC1)C(=O)OCCC(=O)O [Example 87, 3-((4-(cyclohexyloxy)-2-methylene-4-oxobutanoyl)oxy)propanoic acid] | 113
22 | C=C(CC(=O)O[C@H](C)CCCCCC)C(=O)OCCC(=O)O [Example 88, (R)-3-((2-methylene-4-(octan-2-yloxy)-4-oxobutanoyl)oxy)propanoic acid] | 139

Same assay, conditions: Homo sapiens; U2OS PathHunter cells, 6 hours; GSH condition not stated in Table 5; read-out: NRF2 activation EC50

Row | SMILES | EC50 [µM]
23 | C=C(CC(=O)OC1CCCCCCC1)C(=O)OCCC(=O)O [Example 82, 3-((4-(cyclooctyloxy)-2-methylene-4-oxobutanoyl)oxy)propanoic acid] | 26.5
24 | C=C(CC(=O)O[C@@H](C)CCCCCC)C(=O)OCCC(=O)O [Example 84, (S)-3-((2-methylene-4-(octan-2-yloxy)-4-oxobutanoyl)oxy)propanoic acid] | 6.3
25 | C=C(CC(=O)OCCCOc1ccccc1)C(=O)OCCC(=O)O [Example 86, 3-((2-methylene-4-oxo-4-(3-phenoxypropoxy)butanoyl)oxy)propanoic acid] | 21
26 | C=C(CC(=O)OC1CCCCC1)C(=O)OCCC(=O)O [Example 87, 3-((4-(cyclohexyloxy)-2-methylene-4-oxobutanoyl)oxy)propanoic acid] | 34.2
27 | C=C(CC(=O)O[C@H](C)CCCCCC)C(=O)OCCC(=O)O [Example 88, (R)-3-((2-methylene-4-(octan-2-yloxy)-4-oxobutanoyl)oxy)propanoic acid] | 3.2

The remaining lines, values ahead:

Row | EC50 [µM] | SMILES
28 | 8.8 | C=C(CC(=O)OCCCCCCCC)C(=O)OCCC#N [Example 1, 1-(2-cyanoethyl) 4-octyl 2-methylenesuccinate]
29 | 5.1 | C=C(CC(=O)OCCCCCCCC)C(=O)OCCS(C)(=O)=O [Example 2, 1-(2-(methylsulfonyl)ethyl) 4-octyl 2-methylenesuccinate]
30 | 8.3 | C=C(CC(=O)OCCCCCCCC)C(=O)OC1COC1 [Example 4, 4-octyl 1-(oxetan-3-yl) 2-methylenesuccinate]
31 | 15.8 | C=C(CC(=O)OCCCCCCCC)C(=O)OCC(=O)O [Example 49, 2-((2-methylene-4-(octyloxy)-4-oxobutanoyl)oxy)acetic acid]
32 | 21.5 | C=C(CC(=O)OCCCCCCCC)C(=O)OCCC(=O)O [Example 80, 3-((2-methylene-4-(octyloxy)-4-oxobutanoyl)oxy)propanoic Acid]

Test system: not listed separately
Assay: Hepatocyte stability assay (mouse)
Assay type: in vitro ADME
Conditions: cryopreserved hepatocytes, 10 μM compound, 0.5×10^6 cells/mL, 60 minutes, read-out: T½
Description: (§1) Defrosted cryo-preserved hepatocytes (viability >70%) are used to determine the metabolic stability of a compound via calculation of intrinsic clearance (Clint; a measure of the removal of a compound from the liver in the absence of blood flow and cell binding). Clearance data are particularly important for in vitro work as they can be used in combination with in vivo data to predict the half-life and oral bioavailability of a drug.
(§2) The metabolic stability in hepatocytes assay involves a time-dependent reaction using both positive and negative controls. The cells must be pre-incubated at 37° C. then spiked with test compound (and positive control); samples taken at pre-determined time intervals are analysed to monitor the change in concentration of the initial drug compound over 60 minutes. A buffer incubation reaction (with no hepatocytes present) acts as a negative control and two cocktail solutions, containing compounds with known high and low clearance values (verapamil/7-hydroxycoumarin and propranolol/diltiazem), act as positive controls. • 1. The assay is run with a cell concentration of 0.5×10^6 cells/mL in Leibovitz buffer. • 2. All compounds and controls are run in duplicate. • 3. Compound concentration is 10 μM. • 4. All compounds and controls are incubated with both cells and buffer to show turnover is due to hepatic metabolism. • 5. All wells on the incubation plate will have 326.7 μL of either cells or buffer added. • 6. Prior to assay, cell and buffer-only incubation plates are preincubated for 10 mins at 37° C. • 7. The assay is initiated by adding compounds, 3.3 μL of 1 mM in 10% DMSO-90% Buffer; final DMSO concentration is 0.1%. • 8. Samples are taken at regular timepoints (0, 5, 10, 20, 40, 60 min) until 60 mins. • 9. Sample volume is 40 μL and it is added to 160 μL of crash solvent (acetonitrile with internal standard) and stored on ice. • 10. At the end of the assay, the crash plates are centrifuged at 3500 rpm for 20 mins at 4° C. • 11. 80 μL of clear supernatant is removed and mixed with 80 μL of deionised water before being analysed by LC-MS/MS.
(§3) Raw LC-MS/MS data are exported to, and analysed in, Microsoft Excel for determination of intrinsic clearance. The percentage remaining of a compound is monitored using the peak area of the initial concentration as 100%. Intrinsic clearance and half-life values are calculated using a graph of the natural log of percentage remaining versus the time of reaction in minutes. Half-life (min) and intrinsic clearance (Clint in μL min^−1 10^−6 cells) values are calculated using the gradient of the graph (the elimination rate constant, k) and Equations 1 and 2.

Row | SMILES | half-life at 10 μM [min]
33 | C=C(CC(=O)OC1CCCCCCC1)C(=O)OCCC(=O)O [Example 82, 3-((4-(cyclooctyloxy)-2-methylene-4-oxobutanoyl)oxy)propanoic acid] | 27
34 | C=C(CC(=O)O[C@@H](C)CCCCCC)C(=O)OCCC(=O)O [Example 84, (S)-3-((2-methylene-4-(octan-2-yloxy)-4-oxobutanoyl)oxy)propanoic acid] | 6
35 | C=C(CC(=O)OC1CCCCC1)C(=O)OCCC(=O)O [Example 87, 3-((4-(cyclohexyloxy)-2-methylene-4-oxobutanoyl)oxy)propanoic acid] | 65
36 | C=C(CC(=O)O[C@H](C)CCCCCC)C(=O)OCCC(=O)O [Example 88, (R)-3-((2-methylene-4-(octan-2-yloxy)-4-oxobutanoyl)oxy)propanoic acid] | 7

Second part, the compound after the results:

Row | half-life at 10 μM [min] | SMILES
37 | 10 | C=C(CC(=O)OCCCCCCCC)C(=O)OCC(=O)O [Example 49, 2-((2-methylene-4-(octyloxy)-4-oxobutanoyl)oxy)acetic acid]
38 | 9 | C=C(CC(=O)OCCCCCCCC)C(=O)OCCC(=O)O [Example 80, 3-((2-methylene-4-(octyloxy)-4-oxobutanoyl)oxy)propanoic Acid]

Test system: hepatocytes
Assay: Hepatocyte stability assay (mouse)
Assay type: in vitro ADME
Conditions: 10 μM compound, 0.5×10^6 cells/mL, 60 minutes
Description: as §1, §2, §3

Row | SMILES | CIint (μL min^−1 10^−6 cells)
39 | C=C(CC(=O)OC1CCCCCCC1)C(=O)OCCC(=O)O [Example 82, 3-((4-(cyclooctyloxy)-2-methylene-4-oxobutanoyl)oxy)propanoic acid] | 52
40 | C=C(CC(=O)O[C@@H](C)CCCCCC)C(=O)OCCC(=O)O [Example 84, (S)-3-((2-methylene-4-(octan-2-yloxy)-4-oxobutanoyl)oxy)propanoic acid] | 220
41 | C=C(CC(=O)OC1CCCCC1)C(=O)OCCC(=O)O [Example 87, 3-((4-(cyclohexyloxy)-2-methylene-4-oxobutanoyl)oxy)propanoic acid] | 21
42 | C=C(CC(=O)O[C@H](C)CCCCCC)C(=O)OCCC(=O)O [Example 88, (R)-3-((2-methylene-4-(octan-2-yloxy)-4-oxobutanoyl)oxy)propanoic acid] | 297

Results, then the compound that gave them:

Row | CIint (μL min^−1 10^−6 cells) | SMILES
43 | 138 | C=C(CC(=O)OCCCCCCCC)C(=O)OCC(=O)O [Example 49, 2-((2-methylene-4-(octyloxy)-4-oxobutanoyl)oxy)acetic acid]
44 | 158 | C=C(CC(=O)OCCCCCCCC)C(=O)OCCC(=O)O [Example 80, 3-((2-methylene-4-(octyloxy)-4-oxobutanoyl)oxy)propanoic Acid]
